Measurements from article PMC11054735, “LDLR-Mediated Targeting and Productive Uptake of siRNA-Peptide Ligand Conjugates In Vitro and In Vivo” (Pharmaceutics, 2024).
Where two headings read alike, the source gives them in different places.

Columns and labels:
[1] = system: mSOD1 mRNA in Neuro-2a cells; assay: Gene silencing by free uptake in Neuro-2a cells, RT-qPCR; assay type: cell-based, mouse; conditions: 1 µM, 3 days at 37 °C, DMEM with 1% fetal calf serum
Protocol: Neuro-2a cells were plated in a 48-well plate at 13,000 cells/well the day before the test. All siRNA and conjugates were incubated during 3 days at 37 °C with 1 µM of conjugate prepared in DMEM supplemented with 1% fetal calf serum. At the end of the incubation period, cells were washed once with D-PBS before RNA extraction. For in vitro free uptake experiments, the total RNA was extracted using the NucleoSpin RNA XS (Macherey Nagel, Hoerdt, France) according to the manufacturer’s recommendations. For transfection experiments the SuperScript™ IV CellsDirect™ cDNA Synthesis kit (Thermo Fisher Scientific) was used according to manufacturer’s recommendations. […] Aqueous phases were recovered and RNA extraction was performed with the RNeasy 96 QIAcube HT Kit (Qiagen) according to the manufacturer’s recommendations, in a QIACUBE HT instrument (Qiagen). […] For reverse transcription (RT), 500 ng of total RNA were used (except for cells treated with SuperScript™ IV CellsDirect™ cDNA Synthesis), and cDNA synthesis was performed using the High-Capacity RNA-to-cDNA™ kit (Thermo Fisher Scientific) according to the manufacturer’s recommendations. Real-time quantitative PCR (RT-qPCR) assays were performed using the CFX96 Touch Real-Time PCR Detection System (Bio-Rad, Hercules, CA, USA). […] Finally, gene expression ratios (compared to control samples) were determined. […] (A) Transfection of unconjugated siSOD1 and siSOD1-peptide conjugates on Neuro-2a cells at 30 nM. […] (B) Free uptake experiments of unconjugated siSOD1 and siSOD1-peptide conjugates on Neuro-2a cells at 1 µM. […] Each dot corresponds to the mean value obtained in independent experiments.

[2] = biological target: T1, His-tagged recombinant mouse LDLR (extracellular domain, mLDLR-ECD) (Mus musculus, UniProt P35951); assay: SPR LDLR-binding affinity (multiple-cycle kinetics, equilibrium KD); conditions: SPR Biacore T200, 25 °C, mLDLR on NiHC1000m chip (700–2000 RU), MCK mode, 50 mM HEPES-NaOH pH 7.4 running buffer, analyte 0.6–640 nM or 0.6–40 nM, equilibrium response fit, means ± SD of n = 6 (triplicate analysis of 2 independent experiments), read-out: Affinities SPR (equilibrium dissociation constant, KD)
T1 construct: recombinant mouse LDLR (extracellular domain, mLDLR-ECD); purchased SinoBiological (Beijing, China)
Protocol: His-tagged recombinant mouse LDLR (extracellular domain, mLDLR-ECD) was purchased from SinoBiological (Beijing, China). SPR measurements were performed at 25 °C using a Biacore T200 apparatus (Cytiva) and 50 mM HEPES-NaOH pH 7.4, 150 mM NaCl, 50 μM EDTA, 0.005% Tween-20 (v/v), 10 mM Imidazole as running buffer. mLDLR was immobilized on a NiHC1000 m sensor chip (Xantec, Dusseldorf, Germany) at a density of around 10–30 fmol/mm^2. A control flowcell without mLDLR was used as reference. The multiple-cycle kinetic (MCK) method was applied to study molecular interactions of peptides and conjugates. Seven to 11 different concentrations of the analyte were prepared by two-fold dilutions in running buffer (0.6–640 nM or 0.6–40 nM) and successively injected over the flowcells during 120 s at 30 μL/min with a dissociation time of 300 s. Blank runs of running buffer were performed in the same conditions and subtracted from sample runs before evaluation. Equilibrium dissociation constants (KD) were calculated by plotting saturation binding curves using the equilibrium response at the plateau of all curves with BiaEvaluation version 2.0 software. All data are the means of six determinations (triplicate analysis of 2 independent experiments).

[3] = system: mSOD1 mRNA in Neuro-2a cells; assay: Gene silencing after transfection (DharmaFECT 2) in Neuro-2a cells, RT-qPCR; assay type: cell-based, mouse; conditions: DharmaFECT 2, 30 nM, 24 h at 37 °C
Protocol: Neuro-2a cells were plated in a 96-well plate at 4000 cells/well one day before experiments. According to DharmaFECT general manufacturer’s protocol (Horizon Discovery), cells were transfected with a mix containing the DharmaFECT 2 and 30 nM of tested compound. […] At the end of the incubation period, Neuro-2a cells were washed once with D-PBS before RNA extraction.
(§1) For in vitro free uptake experiments, the total RNA was extracted using the NucleoSpin RNA XS (Macherey Nagel, Hoerdt, France) according to the manufacturer’s recommendations. For transfection experiments the SuperScript™ IV CellsDirect™ cDNA Synthesis kit (Thermo Fisher Scientific) was used according to manufacturer’s recommendations. For in vivo experiments, mouse organs were crushed in 2 mL tubes pre-filled with ceramic mixture in Precellys®Cryolys® Evolution (Bertin, Montigny le Bretonneux, France) with a QIAZOL lysis buffer (Qiagen, Venlo, The Netherlands). A volume of 150 µL of chloroform (Sigma Aldrich) was added to 750 µL of tissue homogenate and a phenol/chloroform separation was performed using centrifugation for 15 min at 6000× g at 4 °C. Aqueous phases were recovered and RNA extraction was performed with the RNeasy 96 QIAcube HT Kit (Qiagen) according to the manufacturer’s recommendations, in a QIACUBE HT instrument (Qiagen). […] For reverse transcription (RT), 500 ng of total RNA were used (except for cells treated with SuperScript™ IV CellsDirect™ cDNA Synthesis), and cDNA synthesis was performed using the High-Capacity RNA-to-cDNA™ kit (Thermo Fisher Scientific) according to the manufacturer’s recommendations.
(§2) Real-time quantitative PCR (RT-qPCR) assays were performed using the CFX96 Touch Real-Time PCR Detection System (Bio-Rad, Hercules, CA, USA). […] The following primers were used: Mm01344233_g1 SOD1 (mouse), Mm02526700_g1 RpL13 (mouse), Mm01352366_m1 SDHA (mouse), Mm00457191_m1 PSMC4 (mouse). RpL13, SDHA, or PSMC4 served as internal controls for sample normalization, and the comparative cycle threshold method (2−ΔΔCt) was used for data quantification. Finally, gene expression ratios (compared to control samples) were determined.
(A) Transfection of unconjugated siSOD1 and siSOD1-peptide conjugates on Neuro-2a cells at 30 nM. […] (B) Free uptake experiments of unconjugated siSOD1 and siSOD1-peptide conjugates on Neuro-2a cells at 1 µM. After 3 days at 37 °C, mSOD1 mRNA levels were quantified using RT-qPCR. Each dot corresponds to the mean value obtained in independent experiments. (C) Free uptake experiments of siSOD1-31, -35, -36, -37 conjugates with their respective negative controls siSOD1-31Sc, -35Sc, -36Sc, -37Sc on Neuro-2a cells at 1 µM.

SOD1 mRNA in liver = assay: In vivo gene silencing in mouse liver after i.v. administration, RT-qPCR; conditions: C57Bl/6JRj mice, single i.v. bolus 1 µmole/kg (15 mg/kg siRNA) in PBS, liver 7 days post-administration
Protocol: Wild-type male C57Bl/6JRj mice (Janvier Labs, Le Genest-Saint-Isle, France) aged 10–12 weeks old were used. All animal studies were approved by the ethics committee for animal experimentation (CEEA-N°14) and approved by French ministry of agriculture (MRC). […] Intravenous (i.v., lateral tail vein) administrations (15 mg/kg) were performed on conscious restrained mice. Following a 7-day observational period, animals were euthanized by an intraperitoneal overdose of Ketamin-Xylasine mixture (Sigma Aldrich, Saint-Quentin-Fallavier, France), and tissue samples were collected after extensive blood wash-out by intracardiac perfusion (Left ventricle, Flow rate 8 mL/min) of a saline solution (0.9%) and immediately stored at −20 °C in 10 vol NucleoProtect RNA stabilization reagent (Macherey-Nagel, Düren, Germany) before further RNA extraction and target mRNA quantification.
as §1, §2
The in vivo targeting and functional uptake potential of LDLR-binding siSOD1-peptide conjugates was evaluated as follows.
Mice were injected (i.v. lateral tail vein) with unconjugated siRNAs and siSOD1-peptide conjugates in PBS (15 mg/kg). Seven days post-administration mice were euthanized and perfused with saline solution (0.9% NaCl). Organs were collected to assess the SOD1 mRNA levels using RT-qPCR.

[4] = incubation at 2 mM in freshly collected mouse blood at 37 °C; LC-MS/MS on plasma fractions; peptide described elsewhere; cited from earlier work
Description: Among the family of peptide-based vectors we identified, the VH4127 (cyclo[(D)-Cys-Met-Thz-Arg-Leu-Arg-Gly-Pen]) peptide ligand used in this study was described elsewhere. Briefly, it was obtained by high-throughput screening of phage display peptide libraries on engineered cell lines expressing the mouse and human LDLR, and was further chemically optimized for optimal LDLR-binding affinity and plasma stability. The VH4127 peptide contains three non-natural amino-acids D-Cys, Thz, and Pen (at positions 1, 3, and 8, respectively), and a disulfide bridge between D-Cys and Pen side ...

T1 sequence (P35951 22-790 limits assumed): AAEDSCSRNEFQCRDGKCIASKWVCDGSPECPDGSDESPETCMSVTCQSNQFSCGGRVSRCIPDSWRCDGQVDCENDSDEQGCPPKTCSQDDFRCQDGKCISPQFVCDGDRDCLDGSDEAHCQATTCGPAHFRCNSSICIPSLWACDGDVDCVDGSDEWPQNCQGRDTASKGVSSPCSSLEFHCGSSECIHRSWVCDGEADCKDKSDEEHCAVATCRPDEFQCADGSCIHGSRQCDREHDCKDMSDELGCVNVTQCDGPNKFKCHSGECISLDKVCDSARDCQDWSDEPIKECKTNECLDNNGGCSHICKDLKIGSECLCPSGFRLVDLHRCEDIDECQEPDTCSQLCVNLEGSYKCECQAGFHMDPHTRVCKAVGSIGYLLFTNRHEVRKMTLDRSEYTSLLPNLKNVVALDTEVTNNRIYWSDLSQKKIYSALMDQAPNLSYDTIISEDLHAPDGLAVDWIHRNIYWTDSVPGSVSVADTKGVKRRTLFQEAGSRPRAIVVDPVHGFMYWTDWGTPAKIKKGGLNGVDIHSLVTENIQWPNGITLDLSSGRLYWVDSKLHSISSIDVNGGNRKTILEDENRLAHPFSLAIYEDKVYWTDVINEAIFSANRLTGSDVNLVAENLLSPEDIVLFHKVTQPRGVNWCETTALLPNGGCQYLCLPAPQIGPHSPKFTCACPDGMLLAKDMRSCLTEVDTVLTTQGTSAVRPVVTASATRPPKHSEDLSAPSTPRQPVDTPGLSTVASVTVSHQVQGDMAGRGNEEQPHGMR

Pr-[cMThzRLRGPen]c-PEG2-K(N3)-NH2 (disulfide) [siSOD1-32]
In Vitro KD on N2A, Free Uptake (mSOD1 mRNA knock-down) [1]: did not show improvement compared to the unconjugated 5′P-siSOD1 | Kd ([2]; SD): 86.8 ± 17.1 nM | Kd [2]: 87 to 104 nM | In Vitro KD on N2A, Transfection (mSOD1 mRNA knock-down) [3]: 40% | In Vivo KD, Liver (SOD1 mRNA knock-down) (SOD1 mRNA in liver): ~ 20%

Pr-K(N3)-PEG2-[cMThzRLRGPen]c-NH2 (disulfide) [siSOD1-31]
In Vitro KD on N2A, Free Uptake (mSOD1 mRNA knock-down) [1]: 55% | Kd ([2]; SD): 104 ± 11.7 nM | Kd [2]: 87 to 104 nM | In Vitro KD on N2A, Transfection (mSOD1 mRNA knock-down) [3]: >90% | In Vivo KD, Liver (SOD1 mRNA knock-down) (SOD1 mRNA in liver): 40%

CCC(=O)N[C@@H]1CSSC(C)(C)[C@@H](C(N)=O)NC(=O)CNC(=O)[C@H](CCCNC(=N)N)NC(=O)[C@H](CC(C)C)NC(=O)[C@H](CCCNC(=N)N)NC(=O)[C@@H]2CSCN2C(=O)[C@H](CCSC)NC1=O [VH4127, cyclo[(D)-Cys-Met-Thz-Arg-Leu-Arg-Gly-Pen]]
In vitro plasma stability, estimated half-life [4]: 4.27 h

Pr-[cMThzRLRGPenG]c-OH (disulfide) [siSOD1-35]
In Vitro KD on N2A, Free Uptake (mSOD1 mRNA knock-down) [1]: improved KD effect compared to its non-binding control siSOD1-35sc | Kd ([2]; SD): 11.3 ± 2.9 nM | In Vitro KD on N2A, Transfection (mSOD1 mRNA knock-down) [3]: >90% | In Vivo KD, Liver (SOD1 mRNA knock-down) (SOD1 mRNA in liver): 50%

Pr-K(N3)-PEG2-[cMThzRLRGPen]c-NH2 (disulfide) [siSOD1-37]
In Vitro KD on N2A, Free Uptake (mSOD1 mRNA knock-down) [1]: 60% | Kd ([2]; SD): 31.9 ± 1.6 nM | In Vitro KD on N2A, Transfection (mSOD1 mRNA knock-down) [3]: >90% | In Vivo KD, Liver (SOD1 mRNA knock-down) (SOD1 mRNA in liver): 35%

Pr-K(N3)-PEG2-[cMThzRLRGPen]c-NH2 (disulfide) [siSOD1-36]
In Vitro KD on N2A, Free Uptake (mSOD1 mRNA knock-down) [1]: 60% | Kd ([2]; SD): 25 ± 1.2 nM | In Vitro KD on N2A, Transfection (mSOD1 mRNA knock-down) [3]: >90% | In Vivo KD, Liver (SOD1 mRNA knock-down) (SOD1 mRNA in liver): 30%

Pr-K(N3)-PEG2-[cMThzRLRGPen]c-NH2 (disulfide) [siSOD1-33]
Kd ([2]; SD): 12.8 ± 1.9 nM | In Vitro KD on N2A, Transfection (mSOD1 mRNA knock-down) [3]: >90% | In Vivo KD, Liver (SOD1 mRNA knock-down) (SOD1 mRNA in liver): ~50%
